{"source": "patent US20050009744A1", "about": "“Treatment of congestive heart failure” (priority 2001, published 2005)", "origin": "cited, not measured here", "settings": "Lysko et al, J Cardiovasc Pharmacol 2000"}
{"smiles": "COc1ccccc1OCCNCC(O)COc1cccc2[nH]c3ccccc3c12", "note": "(stereo not shown) [Carvedilol, carvedilol]", "values": [{"measurement": "antioxidant activity", "result": "far greater antioxidant activity than e.g. metoprolol"}]}
